{"source": "patent US6605628B1", "about": "“Method of using 5-(arysulfonyl)-, 5-(arylsulfanyl)-and 5-(arylsulfanyl)thiazolidine-2,4-diones for inhibition of farnesyl-protein transferase” (Wyeth Holdings Corporation, priority 2001, dated 2003)", "key": {"[1]": {"target": "T1, FPTase (Homo sapiens, UniProt P49354+P49356)", "test": "in vitro FTase Inhibition Assay, H-Ras used as substrate for farnesylation", "type": "biochemical", "conditions": "Table I, read-out: IC50 H-Ras*", "experimental": "(§1) Enzyme test procedure: FPTase inhibition in vitro assay was performed according to James, G. L., Brown, M. S., and Goldstein, J. L., Methods in Enzymology, 1995, 255, 38-46; and Garcia, M. A., et al., J. Biol. Chem., 1993, 268, 18415-18420.\n(§2) Materials—Purified FPTase (Moomaw, J. F. and Casey, P. J., J. Biol. Chem., 1992, 267, 17438-17443), purified His6-Ras, inhibitor compounds at 10 mg/ml or 10 mM in 100% DMSO, ^3H-FPP (50,000 dpm/pmol) Amersham, TCA/SDS (6%/2%), TCA (6%), Glass fiber filters ([…]), vacuum manifold or 96 well filtration plates.\n(§3) Methods—1. Dilute FPTase inhibitors from stock solutions to 2.5× in 2.5% DMSO, 10 mM DTT, 0.5% octyl-B-glucoside. 2. Solution #1 is added to FPTase reaction in a volume of […]. 3. Standard reaction mix, […], contains 50 mM Tris (7.5), 10 mM ZnCl2, 3 mM MgCl2, 20 mM KCl, 5 mM DTT, 0.2% octyl-B-glucoside, 1% DMSO, […] His6-Ras, 10 ng FPTase, and various concentrations of FPTase inhibitors. 4. Incubate for 30-90 min at 25° C. 5. Stop reactions with TCA/SDS (6%/2%), hold at 4° C. for 45-60 min. 6. Filter by manifold or 96 well plate, wash filter 3-5× with TCA (6%). 7. Add scintillant to filters, measure ^3H-FPP incorporation into Ras protein.\n(§4) Analysis of Results—Percent inhibition by test compounds is determined by the following:\n(§5) (cpm from precipitated Ras with test compounds)−(background cpm)×100=% inhibition.\n(§6) (cpm from precipitated Ras without test compounds)−(background cpm)"}, "[2]": {"target": "T1, FPTase", "test": "in vitro FTase Inhibition Assay, K-Ras used as substrate for farnesylation", "type": "biochemical", "conditions": "Table I", "experimental": "as §1, §2, §3, §4, §5, §6"}}, "data": [{"smiles": "COc1ccc(S(=O)(=O)C2(CCCC#Cc3cc(NC(=O)OC(C)(C)C)ccc3C)SC(=O)NC2=O)cc1", "note": "(single isomer, unassigned; less polar) [Example 222, Enantiomer of (3-{5-[5-(4-Methoxybenzenesulfonyl)-2,4-dioxothiazolidin-5-yl]pent-1-ynyl}-4-methylphenyl)carbamic Acid tert-Butyl Ester (Less Polar)]", "values": [{"measurement": "IC50", "setting": "[1]", "value": 3.3, "unit": "nM"}, {"measurement": "IC50", "setting": "[2]", "value": 33, "unit": "nM"}]}, {"smiles": "COc1ccc(S(=O)(=O)C2(CCCC#Cc3cc(NC(=O)OC(C)(C)C)ccc3C)SC(=O)NC2=O)cc1", "note": "(single isomer, unassigned; more polar) [Example 223, Enantiomer of (3-{5-[5-(4-Methoxybenzenesulfonyl)-2,4-dioxothiazolidin-5-yl]pent-1-ynyl}-4-methylphenyl)carbamic Acid tert-Butyl Ester (More Polar)]", "values": [{"measurement": "IC50", "setting": "[1]", "value": 63, "unit": "nM"}, {"measurement": "IC50", "setting": "[2]", "value": "> 1000", "unit": "nM"}]}, {"smiles": "COc1ccc(S(=O)(=O)C2(CCCC#Cc3ccc(Cl)cc3)SC(=O)NC2=O)cc1", "note": "(stereo not drawn) [Example 97, 5-[5-(4-Chlorophenyl)pent4-ynyl]-5-(4-methoxyphenylsulfonyl)-thiazolidine-2,4-dione]", "values": [{"measurement": "IC50", "setting": "[1]", "value": "75 to 150", "unit": "nM"}, {"measurement": "IC50", "setting": "[2]", "value": "3500 to 5500", "unit": "nM"}]}, {"smiles": "O=C1NC(=O)C(CCCC#Cc2ccc(Cl)cc2)(S(=O)(=O)c2ccc(F)cc2)S1", "note": "(stereo not drawn) [Example 105, 5-[5-(4-Chlorophenyl)pent-4-ynyl]-5-(4-fluorobenzenesulfonyl)thiazolidine-2,4-dione]", "values": [{"measurement": "IC50", "setting": "[1]", "value": "50 to 150", "unit": "nM"}, {"measurement": "IC50", "setting": "[2]", "value": "1500 to 1700", "unit": "nM"}]}, {"smiles": "O=C1NC(=O)C(CCCC#Cc2ccc(Cl)cc2)(S(=O)(=O)c2cccc3cccnc23)S1", "note": "(stereo not drawn) [Example 109, 5-[5-(4-Chlorophenyl)pent-4-ynyl]-5-(quinoline-8-sulfonyl)thiazolidine-2,4-dione]", "values": [{"measurement": "IC50", "setting": "[1]", "value": "65 to 130", "unit": "nM"}, {"measurement": "IC50", "setting": "[2]", "value": "1400 to 2100", "unit": "nM"}]}, {"smiles": "O=C1NC(=O)C(CCCC#Cc2ccc(Cl)cc2)(S(=O)(=O)c2ccc([N+](=O)[O-])cc2)S1", "note": "(stereo not drawn) [Example 110, 5-[5-(4-Chlorophenyl)pent-4-ynyl]-5-(4-nitrobenzenesulfonyl)thiazolidine-2,4-dione]", "values": [{"measurement": "IC50", "setting": "[1]", "value": 400, "unit": "nM"}, {"measurement": "IC50", "setting": "[2]", "value": 7000, "unit": "nM"}]}, {"smiles": "O=C1NC(=O)C(CCCC#Cc2cc(Cl)ccc2Cl)(S(=O)(=O)c2ccc(I)cc2)S1", "note": "(stereo not drawn) [Example 115, 5-[5-(2,5-Dichloro-phenyl)pent-4-ynyl]-5-(4-iodobenzenesulfonyl)-thiazolidine-2,4-dione]", "values": [{"measurement": "IC50", "setting": "[1]", "value": "12 to 320", "unit": "nM"}, {"measurement": "IC50", "setting": "[2]", "value": "160 to 230", "unit": "nM"}]}, {"smiles": "COc1ccc(S(=O)(=O)C2(CCCC#Cc3cc([N+](=O)[O-])ccc3C)SC(=O)NC2=O)cc1", "note": "(stereo not drawn) [Example 122, 5-(4-Methoxybenzenesulfonyl)-5-[5-(2-methyl-5-nitrophenyl)pent-4-ynyl]thiazolidine-2,4-dione]", "values": [{"measurement": "IC50", "setting": "[1]", "value": "30 to 50", "unit": "nM"}, {"measurement": "IC50", "setting": "[2]", "value": "230 to 1000", "unit": "nM"}]}, {"smiles": "COc1ccc(S(=O)(=O)C2(CCCC#Cc3cc([N+](=O)[O-])ccc3OC)SC(=O)NC2=O)cc1", "note": "(stereo not drawn) [Example 123, 5-(4-Methoxybenzenesulfonyl)-5-[5-(2-methoxy-5-nitrophenyl)pent-4-ynyl]thiazolidine-2,4-dione]", "values": [{"measurement": "IC50", "setting": "[1]", "value": "80 to 82", "unit": "nM"}, {"measurement": "IC50", "setting": "[2]", "value": "1000 to 2800", "unit": "nM"}]}, {"smiles": "COc1ccc(S(=O)(=O)C2(CCCC#Cc3ccc([N+](=O)[O-])cc3C)SC(=O)NC2=O)cc1", "note": "(stereo not drawn) [Example 130, 5-(4-Methoxybenzenesulfonyl)-5-[5-(2-methyl-4-nitrophenyl)-pent-4-ynyl]-thiazolidine-2,4-dione]", "values": [{"measurement": "IC50", "setting": "[1]", "value": "23 to 56", "unit": "nM"}, {"measurement": "IC50", "setting": "[2]", "value": "320 to 1000", "unit": "nM"}]}, {"smiles": "COc1ccc(S(=O)(=O)C2(CCCC#Cc3ccc([N+](=O)[O-])cc3OC)SC(=O)NC2=O)cc1", "note": "(stereo not drawn) [Example 132, 5-(4-Methoxybenzenesulfonyl)-5-[5-(2-methoxy-4-nitrophenyl)pent-4-ynyl]thiazolidine-2,4-dione]", "values": [{"measurement": "IC50", "setting": "[1]", "value": "41 to 73", "unit": "nM"}, {"measurement": "IC50", "setting": "[2]", "value": "210 to 1000", "unit": "nM"}]}, {"smiles": "COc1ccc(S(=O)(=O)C2(CCCC#Cc3cc(F)cc([N+](=O)[O-])c3)SC(=O)NC2=O)cc1", "note": "(stereo not drawn) [Example 133, 5-[5-(3-Fluoro-5-nitrophenyl)pent-4-ynyl]-5-(4-methoxybenzenesulfonyl)-thiazolidine-2,4-dione]", "values": [{"measurement": "IC50", "setting": "[1]", "value": "40 to 200", "unit": "nM"}, {"measurement": "IC50", "setting": "[2]", "value": "54 to 1000", "unit": "nM"}]}]}
